ChEMBL document CHEMBL1152582, “Discovery of trans-N-[1-(2-fluorophenyl)-3-pyrazolyl]-3-oxospiro[6-azaisobenzofuran-1(3H),1'-cyclohexane]-4'-carboxamide, a potent and orally active neuropeptide Y Y5 receptor antagonist” (Bioorg Med Chem, 2009)
Calls of active or inactive are those of the source. No cut-off for these calls is given here.

Tests used:
[1] = target: T1, Neuropeptide Y receptor type 5 (Homo sapiens, UniProt Q15761)
T1 sequence (Q15761 whole entry): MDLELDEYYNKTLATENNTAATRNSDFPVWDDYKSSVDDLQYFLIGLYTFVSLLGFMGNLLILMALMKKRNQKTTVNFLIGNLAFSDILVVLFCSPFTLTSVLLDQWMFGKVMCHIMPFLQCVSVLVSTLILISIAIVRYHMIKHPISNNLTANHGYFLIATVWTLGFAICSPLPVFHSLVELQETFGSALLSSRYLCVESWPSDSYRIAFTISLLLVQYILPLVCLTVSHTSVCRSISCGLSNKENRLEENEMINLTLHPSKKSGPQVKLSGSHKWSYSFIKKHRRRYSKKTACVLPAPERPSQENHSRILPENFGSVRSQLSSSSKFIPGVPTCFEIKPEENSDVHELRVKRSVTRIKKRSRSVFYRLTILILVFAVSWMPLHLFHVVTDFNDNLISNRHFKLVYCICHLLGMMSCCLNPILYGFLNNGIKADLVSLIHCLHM
Description: Displacement of [125I]PYY from human recombinant Y5 receptor

in vitro = conditions: rat, hepatocytes
Description: Clearance in rat hepatocytes

CYP3A = assay: Inhibition of CYP3A at 10 uM; type: ADME
in vivo [2] = conditions: rat, CSF/plasma, po, 10 mg/kg
Description: Ratio of drug level in CSF to plasma in rat at 10 mg/kg, po after 2 hrs

in vivo [3] = conditions: rat, CSF, po, 10 mg/kg
Description: Drug level in rat CSF at 10 mg/kg, po after 2 hrs

[4] = target: T2, Neuropeptide Y receptor type 5 (Rattus norvegicus, UniProt Q63634)
T2 sequence (Q63634 whole entry): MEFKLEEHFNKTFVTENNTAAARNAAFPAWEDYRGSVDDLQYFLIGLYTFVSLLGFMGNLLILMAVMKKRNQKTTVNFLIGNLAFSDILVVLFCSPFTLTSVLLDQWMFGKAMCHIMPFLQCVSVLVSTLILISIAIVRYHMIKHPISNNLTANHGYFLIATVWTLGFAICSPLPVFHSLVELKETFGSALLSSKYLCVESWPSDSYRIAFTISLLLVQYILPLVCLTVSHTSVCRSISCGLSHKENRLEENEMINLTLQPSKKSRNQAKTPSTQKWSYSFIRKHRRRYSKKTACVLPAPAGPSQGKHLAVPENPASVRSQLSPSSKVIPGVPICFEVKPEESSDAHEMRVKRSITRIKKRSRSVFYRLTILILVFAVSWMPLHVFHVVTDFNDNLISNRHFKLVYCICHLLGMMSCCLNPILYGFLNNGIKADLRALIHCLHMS
Description: Inhibition of rat Y5 receptor

in vivo [5] = conditions: rat, plasma, po, 10 mg/kg
Description: Plasma concentration in rat at 10 mg/kg, po after 2 hrs

Rattus norvegicus [6] = assay: Inhibition of [D-Trp34]NPY-induced food intake in Sprague-Dawley rat assessed as minimum effective dose treated po 2 hrs before [D-Trp34]NPY challenge; type: functional; conditions: read-out: MED
physchem = conditions: buffer, pH 7.4
Description: Lipophilicity, log D at pH 7.4

[7] = Ratio of drug level in brain to plasma in rat at 10 mg/kg, po after 2 hrs; type: ADME, organism-based; set-up: dose 10 mg/kg, route oral; conditions: read-out: BPR
Brain = conditions: rat, in vivo, po, 10 mg/kg, 2 h
Description: Drug level in rat brain at 10 mg/kg, po after 2 hrs

Rattus norvegicus [8] = assay: Inhibition of [D-Trp34]NPY-induced food intake in Sprague-Dawley rat at 3 mg/kg, po treated 2 hrs before [D-Trp34]NPY challenge; type: functional
Mus musculus [9] = organism: Mus musculus; assay: Ex vivo Y5 receptor occupancy in mouse brain at plasma level of 10 to 20 ng/ml; type: functional, organism-based
Rattus norvegicus [10] = assay: Inhibition of NPY-induced food intake in Sprague-Dawley rat at 10 mg/kg, po treated 2 hrs before [D-Trp34]NPY challenge; type: functional
Rattus norvegicus [11] = assay: Inhibition of [D-Trp34]NPY-induced food intake in Sprague-Dawley rat at 0.3 mg/kg, po treated 2 hrs before [D-Trp34]NPY challenge; type: functional
Rattus norvegicus [12] = assay: Inhibition of [D-Trp34]NPY-induced food intake in Sprague-Dawley rat at 1 mg/kg, po treated 2 hrs before [D-Trp34]NPY challenge; type: functional
Rattus norvegicus [13] = assay: Inhibition of [D-Trp34]NPY-induced food intake in Sprague-Dawley rat at 10 mg/kg, po treated 2 hrs before [D-Trp34]NPY challenge; type: functional
Mus musculus [14] = organism: Mus musculus; assay: Ex vivo Y5 receptor occupancy in mouse brain at plasma level of 100 to 200 ng/ml; type: functional, organism-based

Structure (SMILES)	IC50 [1] [nM]	CLhep predicted (in vitro) [mL/min/kg]	concentration at 2 h (in vivo [3]) [nM]	concentration at 2 h (in vivo [5]) [nM]	logD (physchem)	Drug uptake (Brain) [nmol/g]	other results
O=C1O[C@]2(CC[C@H](C(=O)Nc3cc(-c4ccccc4)[nH]n3)CC2)c2cccnc21	5.4	2	–	–	–	–	–
O=C1O[C@]2(CC[C@H](C(=O)Nc3ccn(-c4ccccc4)n3)CC2)c2cnccc21	2.3	20	276	2940	3.1	3.13	Kp at 2 h (in vivo [2]): 0.088; IC50 [4]: 2.2 nM; minimal effective dose (Rattus norvegicus [6]): > 10 mg/kg; Kp at 2 h [7]: 1.06
O=C1O[C@]2(CC[C@H](C(=O)Nc3ccc(-c4ccccc4)cn3)CC2)c2cnccc21	2.1	14	–	20	–	–	–
O=C1O[C@]2(CC[C@H](C(=O)Nc3cc(-c4ccccc4)on3)CC2)c2cnccc21	2.1	6	–	290	–	–	–
O=C1O[C@]2(CC[C@H](C(=O)Nc3cnn(-c4ccccc4)n3)CC2)c2cnccc21	0.89	21	42	680	3.4	1.33	Kp at 2 h (in vivo [2]): 0.032
O=C1O[C@]2(CC[C@H](C(=O)Nc3cnn(-c4ccccc4)c3)CC2)c2cccnc21	1.3	1	91	6680	2.9	0.5	Kp at 2 h (in vivo [2]): 0.18; IC50 [4]: 4.7 nM; minimal effective dose (Rattus norvegicus [6]): 10 mg/kg
O=C1O[C@]2(CC[C@H](C(=O)Nc3ncc(-c4ccccc4)cn3)CC2)c2cccnc21	–	49	–	–	–	–	–
O=C1O[C@]2(CC[C@H](C(=O)Nc3ccn(-c4ccc(F)cc4)n3)CC2)c2cnccc21	0.92	7	81	890	3.2	1.24	IC50 [4]: 2.1 nM; minimal effective dose (Rattus norvegicus [6]): 1 mg/kg
O=C1O[C@]2(CC[C@H](C(=O)Nc3cc(-c4ccccc4)[nH]n3)CC2)c2ncccc21	26	–	–	–	–	–	–
O=C1O[C@]2(CC[C@H](C(=O)Nc3ccn(-c4ccccc4F)n3)CC2)c2cnccc21 [MK-0557]	–	9	152	1590	3.2	2.15	inhibition in vivo at 3 mg/kg (Rattus norvegicus [8]): 61%; Activity (Mus musculus [9]): Active; IC50 [4]: 2.1 nM; minimal effective dose (Rattus norvegicus [6]): 3 mg/kg; inhibition in vivo at 10 mg/kg (Rattus norvegicus [10]): 22%; inhibition in vivo at 0.3 mg/kg (Rattus norvegicus [11]): 27%; inhibition in vivo at 1 mg/kg (Rattus norvegicus [12]): 43%; inhibition in vivo at 10 mg/kg (Rattus norvegicus [13]): 83%
O=C1O[C@]2(CC[C@H](C(=O)Nc3csc(-c4ccccc4)n3)CC2)c2cnccc21	1.2	12	–	190	–	–	–
O=C1O[C@]2(CC[C@H](C(=O)Nc3cc(-c4ccccc4)on3)CC2)c2ncccc21	2.4	36	–	–	3.7	–	–
O=C1OC2(CCC(C(=O)Nc3cnc(-c4ccccc4)cn3)CC2)c2ccccc21 (configuration not stated)	–	–	–	–	–	–	IC50 [4]: 2.5 nM; minimal effective dose (Rattus norvegicus [6]): > 10 mg/kg; Activity (Mus musculus [14]): Active
O=C1O[C@]2(CC[C@H](C(=O)Nc3ccn(-c4cccc(F)c4)n3)CC2)c2cnccc21	2	10	77	1090	3.4	1.36	–
O=C1O[C@]2(CC[C@H](C(=O)Nc3ncc(-c4ccccc4)cn3)CC2)c2ncccc21	–	49	–	–	–	–	–
O=C1O[C@]2(CC[C@H](C(=O)Nc3cnn(-c4ccccc4)c3)CC2)c2cnccc21	2.2	< 1	45	1520	–	0.39	Kp at 2 h (in vivo [2]): 0.115
O=C1O[C@]2(CC[C@H](C(=O)Nc3cc(-c4ccccc4)[nH]n3)CC2)c2cnccc21	2.7	3	59	6100	3.16	0.5	–
O=C1O[C@]2(CC[C@H](C(=O)Nc3ccn(-c4ccccc4)n3)CC2)c2cccnc21	4.4	4	416	6460	2.8	2.79	Kp at 2 h (in vivo [2]): 0.15; IC50 [4]: 1.7 nM; minimal effective dose (Rattus norvegicus [6]): 3 mg/kg

Second part, led by results:

IC50 [1] [nM]	CLhep predicted (in vitro) [mL/min/kg]	concentration at 2 h (in vivo [3]) [nM]	concentration at 2 h (in vivo [5]) [nM]	logD (physchem)	Drug uptake (Brain) [nmol/g]	Structure (SMILES)	other results
2.4	42	–	–	–	–	O=C1O[C@]2(CC[C@H](C(=O)Nc3cnc(-c4ccccc4)cn3)CC2)c2ccncc21	inhibition at 10 µM (CYP3A): > 50%
–	42	–	–	–	–	O=C1O[C@]2(CC[C@H](C(=O)Nc3ncc(-c4ccccc4)cn3)CC2)c2ccncc21	inhibition at 10 µM (CYP3A): > 50%
–	39	–	–	–	–	O=C1O[C@]2(CC[C@H](C(=O)Nc3ncc(-c4ccccc4)cn3)CC2)c2cnccc21	–
1.5	35	–	–	> 4	–	O=C1O[C@]2(CC[C@H](C(=O)Nc3cnc(-c4ccccc4)cn3)CC2)c2ccccc21	–
2.2	36	–	–	3.39	–	O=C1O[C@]2(CC[C@H](C(=O)Nc3cnc(-c4ccccc4)cn3)CC2)c2cnccc21	–
2.9	9	–	–	–	–	O=C1O[C@]2(CC[C@H](C(=O)Nc3cc(-c4ccccc4)n[nH]3)CC2)c2ccncc21	inhibition at 10 µM (CYP3A): > 50%
3.9	39	–	–	–	–	O=C1O[C@]2(CC[C@H](C(=O)Nc3cnc(-c4ccccc4)cn3)CC2)c2ncccc21	–
4.2	18	174	3750	3.1	2.5	O=C1O[C@]2(CC[C@H](C(=O)Nc3cnc(-c4ccccc4)cn3)CC2)c2cccnc21	–
